# Experimental data: patent US20110166206A1, “UBIQUILIN REGULATION OF PRESENILIN ENDOPROTEOLYSIS, AND SUPPRESSION OF POLYGLUTAMINE-INDUCED TOXICITY IN CELLS” (UNIVERSITY OF MARYLAND BIOTECHNOLOGY INSTITUTE, priority 2005, published 2011)
# Tested on: endogenous PS1 NTF
# Test: UBQLN overexpression in wild-type HEK293 cells, endogenous PS1 NTF immunoblot
# Assay type: cell-based
# Settings: normal HEK293 cells
# Procedure: (C) Endogenous PS fragment levels were analyzed in HEK293 cells that were transfected with increasing amounts of UBQLN1 or UBQLN2 expression plasmids. Equivalent amounts of protein lysates were separated by 10% SDS-PAGE and immunoblotted with anti-PS1 NTF antibody. The filter was then reprobed with anti-ubiquilin antibody to ensure overexpression of UBQLN and with an anti-actin antibody to ensure equal protein loading. Overexpression of UBQLN decreases PS1 NTF levels and the extent of reduction was quantified again by densitometric analysis. Graph is quantification of untransfected and […] UBQLN cDNA plasmid transfected lanes.
# Preparation of protein lysates, SDS-PAGE and immunoblotting of proteins were described previously. Primary antibodies used were rabbit anti-PS2 loop and rabbit anti-PS2 NH,-terminus, both raised to GST-PS2 fusion proteins; rabbit anti-ubiquilin [43] which reacts with UBQLN1 and UBQLN2 polypeptides; rat anti-PS1 NH2,-terminus (Chemicon International, Temecula, Calif.); rabbit anti-PS1 loop raised to GST-PS1 fusion proteins; goat anti-p27 and goat anti-actin (Santa Cruz Biotechnology, Santa Cruz, Calif.); mouse monoclonal anti-tubulin (Sigma-Aldrich, St. Louis, Mo.); rabbit anti-nicastrin (Abeam, Cambridge, Mass.), rabbit anti-Pen-2 (Zymed, San Francisco, Calif.); and rabbit anti-Aph-la (Covance, Berkeley, Calif.). […]
substance,measurement,value
"UBQLN1: PS-interacting protein ubiquilin-1, overexpressed in cells from a cDNA expression plasmid",reduction of endogenous PS1 NTF levels,approximately 1.7 fold
